From US20100041089A1, “IMPROVED METHOD FOR DETECTING CHEMICAL […]” (priority 2006, published 2010)

Test system: yeast genes (expressed mRNA)
Assay: DNA chip measurement of expressed mRNA of yeast genes after culture with a toxic chemical substance
Assay type: cell-based, Saccharomyces cerevisiae S288C
How it was run: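 Each expression value is the mRNA level in chemical-treated yeast divided by that in untreated yeast, from Cy3/Cy5 fluorescence on a whole-genome chip. Log-phase S288C cells in YPD at 25° C had received a sublethal, growth-inhibiting dose for two hours. Intensity denotes control expression relative to the all-gene mean.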

SMILES: O=[N+]([O-])c1cc[n+]([O-])c2ccccc12 [(5), 4-Nitroquinoline-N-oxide]
- The level of expressed mRNA in the presence of chemical substance/The level of expressed mRNA in the absence of chemical substance (yeast gene YKL086W, cultured two hours with substance): 0.8
- The level of expressed mRNA in the presence of chemical substance/The level of expressed mRNA in the absence of chemical substance (yeast gene YKL139W): 2.8
- The level of expressed mRNA in the presence of chemical substance/The level of expressed mRNA in the absence of chemical substance (yeast gene YKL151C, cultured two hours with substance): 1.0
- The level of expressed mRNA in the presence of chemical substance/The level of expressed mRNA in the absence of chemical substance (yeast gene YKL153W, cultured two hours with substance): 1.0
- The level of expressed mRNA in the presence of chemical substance/The level of expressed mRNA in the absence of chemical substance (yeast gene YKL195W, cultured two hours with substance): 1.9
- The level of expressed mRNA in the presence of chemical substance/The level of expressed mRNA in the absence of chemical substance (yeast gene YKR091W, cultured two hours with substance): 1.6
- The level of expressed mRNA in the presence of chemical substance/The level of expressed mRNA in the absence of chemical substance (yeast gene YLR054C, cultured two hours with substance): 1.3
- The level of expressed mRNA in the presence of chemical substance/The level of expressed mRNA in the absence of chemical substance (yeast gene YLR149C, cultured two hours with substance): 0.8
- The level of expressed mRNA in the presence of chemical substance/The level of expressed mRNA in the absence of chemical substance (yeast gene YLR152C, cultured two hours with substance): 1.1
- The level of expressed mRNA in the presence of chemical substance/The level of expressed mRNA in the absence of chemical substance (yeast gene YLR194C, cultured two hours with substance): 1.0
- The level of expressed mRNA in the presence of chemical substance/The level of expressed mRNA in the absence of chemical substance (yeast gene YLR324W, cultured two hours with substance): 1.3
- The level of expressed mRNA in the presence of chemical substance/The level of expressed mRNA in the absence of chemical substance (yeast gene YLR350W, cultured two hours with substance): 0.8
- The level of expressed mRNA in the presence of chemical substance/The level of expressed mRNA in the absence of chemical substance (yeast gene YLR387C, cultured two hours with substance): 1.3
- The level of expressed mRNA in the presence of chemical substance/The level of expressed mRNA in the absence of chemical substance (yeast gene YLR388W): 2.5
- The level of expressed mRNA in the presence of chemical substance/The level of expressed mRNA in the absence of chemical substance (yeast gene YLR460C, cultured two hours with substance): 1.3
- The level of expressed mRNA in the presence of chemical substance/The level of expressed mRNA in the absence of chemical substance (yeast gene YML107C, cultured two hours with the substance): 2.2
- The level of expressed mRNA in the presence of chemical substance/The level of expressed mRNA in the absence of chemical substance (yeast gene YML117W, cultured two hours with substance): 0.8
- The level of expressed mRNA in the presence of chemical substance/The level of expressed mRNA in the absence of chemical substance (yeast gene YMR009W, cultured two hours with substance): 1.9
- The level of expressed mRNA in the presence of chemical substance/The level of expressed mRNA in the absence of chemical substance (yeast gene YMR067C, cultured two hours with substance): 1.1
- The level of expressed mRNA in the presence of chemical substance/The level of expressed mRNA in the absence of chemical substance (yeast gene YMR090W, cultured two hours with substance): 0.7
- The level of expressed mRNA in the presence of chemical substance/The level of expressed mRNA in the absence of chemical substance (yeast gene YMR095C, cultured two hours with substance): 0.9
- The level of expressed mRNA in the presence of chemical substance/The level of expressed mRNA in the absence of chemical substance (yeast gene YMR097C, cultured two hours with substance): 0.7
- The level of expressed mRNA in the presence of chemical substance/The level of expressed mRNA in the absence of chemical substance (yeast gene YMR102C, cultured two hours with substance): 1.2
- The level of expressed mRNA in the presence of chemical substance/The level of expressed mRNA in the absence of chemical substance (yeast gene YMR107W, cultured two hours with substance): 1.1
- The level of expressed mRNA in the presence of chemical substance/The level of expressed mRNA in the absence of chemical substance (yeast gene YMR180C, cultured two hours with substance): 1.0
- The level of expressed mRNA in the presence of chemical substance/The level of expressed mRNA in the absence of chemical substance (yeast gene YMR184W, cultured two hours with substance): 0.8
- The level of expressed mRNA in the presence of chemical substance/The level of expressed mRNA in the absence of chemical substance (yeast gene YMR191W, cultured two hours with substance): 1.5
- The level of expressed mRNA in the presence of chemical substance/The level of expressed mRNA in the absence of chemical substance (yeast gene YMR295C, cultured two hours with substance): 1.4
- The level of expressed mRNA in the presence of chemical substance/The level of expressed mRNA in the absence of chemical substance (yeast gene YMR316W, cultured two hours with substance): 1.1
- The level of expressed mRNA in the presence of chemical substance/The level of expressed mRNA in the absence of chemical substance (yeast gene YNL044W, cultured two hours with substance): 1.2
- The level of expressed mRNA in the presence of chemical substance/The level of expressed mRNA in the absence of chemical substance (yeast gene YNL074C, cultured two hours with substance): 1.3
- The level of expressed mRNA in the presence of chemical substance/The level of expressed mRNA in the absence of chemical substance (yeast gene YNL092W, cultured two hours with substance): 0.9
- The level of expressed mRNA in the presence of chemical substance/The level of expressed mRNA in the absence of chemical substance (yeast gene YNL115C, cultured two hours with substance): 0.8
- The level of expressed mRNA in the presence of chemical substance/The level of expressed mRNA in the absence of chemical substance (yeast gene YNL156C, cultured two hours with substance): 1.6
- The level of expressed mRNA in the presence of chemical substance/The level of expressed mRNA in the absence of chemical substance (yeast gene YNL217W, cultured two hours with the substance): 2.1
- The level of expressed mRNA in the presence of chemical substance/The level of expressed mRNA in the absence of chemical substance (yeast gene YNL234W, cultured two hours with substance): 1.7
- The level of expressed mRNA in the presence of chemical substance/The level of expressed mRNA in the absence of chemical substance (yeast gene YNL281W, cultured two hours with substance): 1.7
- The level of expressed mRNA in the presence of chemical substance/The level of expressed mRNA in the absence of chemical substance (yeast gene YNL305C, cultured two hours with substance): 1.3
- The level of expressed mRNA in the presence of chemical substance/The level of expressed mRNA in the absence of chemical substance (yeast gene YNR068C, cultured two hours with substance): 1.7
- The level of expressed mRNA in the presence of chemical substance/The level of expressed mRNA in the absence of chemical substance (yeast gene YOL032W, cultured two hours with substance): 1.4
- The level of expressed mRNA in the presence of chemical substance/The level of expressed mRNA in the absence of chemical substance (yeast gene YOL036W, cultured two hours with substance): 1.2
- The level of expressed mRNA in the presence of chemical substance/The level of expressed mRNA in the absence of chemical substance (yeast gene YOL047C, cultured two hours with substance): 1.4
- The level of expressed mRNA in the presence of chemical substance/The level of expressed mRNA in the absence of chemical substance (yeast gene YOL071W, cultured two hours with substance): 0.9
- The level of expressed mRNA in the presence of chemical substance/The level of expressed mRNA in the absence of chemical substance (yeast gene YOL082W, cultured two hours with substance): 1.5
- The level of expressed mRNA in the presence of chemical substance/The level of expressed mRNA in the absence of chemical substance (yeast gene YOL083W, cultured two hours with substance): 1.4
- The level of expressed mRNA in the presence of chemical substance/The level of expressed mRNA in the absence of chemical substance (yeast gene YOL117W, cultured two hours with substance): 1.7
- The level of expressed mRNA in the presence of chemical substance/The level of expressed mRNA in the absence of chemical substance (yeast gene YOL131W, cultured two hours with substance): 1.5
- The level of expressed mRNA in the presence of chemical substance/The level of expressed mRNA in the absence of chemical substance (yeast gene YOL150C, cultured two hours with substance): 1.0
- The level of expressed mRNA in the presence of chemical substance/The level of expressed mRNA in the absence of chemical substance (yeast gene YOL162W, cultured two hours with substance): 0.9
- The level of expressed mRNA in the presence of chemical substance/The level of expressed mRNA in the absence of chemical substance (yeast gene YOR019W, cultured two hours with substance): 1.4
- The level of expressed mRNA in the presence of chemical substance/The level of expressed mRNA in the absence of chemical substance (yeast gene YOR197W, cultured two hours with substance): 0.6
- The level of expressed mRNA in the presence of chemical substance/The level of expressed mRNA in the absence of chemical substance (yeast gene YOR215C, cultured two hours with substance): 1.8
- The level of expressed mRNA in the presence of chemical substance/The level of expressed mRNA in the absence of chemical substance (yeast gene YPL087W, cultured two hours with substance): 0.6
- The level of expressed mRNA in the presence of chemical substance/The level of expressed mRNA in the absence of chemical substance (yeast gene YPL196W, cultured two hours with substance): 1.5
- The level of expressed mRNA in the presence of chemical substance/The level of expressed mRNA in the absence of chemical substance (yeast gene YPL206C, cultured two hours with substance): 0.7
- The level of expressed mRNA in the presence of chemical substance/The level of expressed mRNA in the absence of chemical substance (yeast gene YPL222W, cultured two hours with substance): 1.2
- The level of expressed mRNA in the presence of chemical substance/The level of expressed mRNA in the absence of chemical substance (yeast gene YPR023C, cultured two hours with substance): 1.1
- The level of expressed mRNA in the presence of chemical substance/The level of expressed mRNA in the absence of chemical substance (yeast gene YPR151C, cultured two hours with substance): 1.3
